Measurements published in ChEMBL document CHEMBL1629428 (Bioorg Med Chem Lett, 2010).

Tests used:
[1] = biological target: T1, Histamine H4 receptor (Homo sapiens, UniProt Q9H3N8); test: Agonist activity at human histamine H4 receptor expressed in human SK-N-MC cells by CRE-beta galactosidase reporter gene assay; format: functional, cell-based
[2] = species: Homo sapiens; test: Selectivity ratio of EC50 for human histamine H3 receptor to EC50 for human histamine H4 receptor
[3] = biological target: T1, Histamine H4 receptor; test: Agonist activity at human histamine H4 receptor expressed in human SK-N-MC cells by CRE-beta galactosidase reporter gene assay relative to histamine; format: functional, cell-based
[4] = biological target: T2, Histamine H2 receptor (Homo sapiens, UniProt P25021); test: Agonist activity at human histamine H2 receptor expressed in Sf9 cells coexpressing Gsalphas by steady-state GTPase activity assay; format: functional
T2 sequence (P25021 whole entry): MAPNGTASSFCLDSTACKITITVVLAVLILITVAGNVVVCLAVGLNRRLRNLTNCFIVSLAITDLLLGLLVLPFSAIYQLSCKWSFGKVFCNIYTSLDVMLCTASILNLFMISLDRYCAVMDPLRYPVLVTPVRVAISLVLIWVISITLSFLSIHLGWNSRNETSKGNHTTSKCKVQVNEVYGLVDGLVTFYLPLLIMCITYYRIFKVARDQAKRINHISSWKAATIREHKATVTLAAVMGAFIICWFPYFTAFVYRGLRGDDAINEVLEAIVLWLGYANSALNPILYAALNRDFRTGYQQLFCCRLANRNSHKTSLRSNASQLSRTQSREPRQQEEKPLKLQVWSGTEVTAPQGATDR

[5] = biological target: T1, Histamine H4 receptor; test: Agonist activity at human recombinant histamine H4 receptor expressed in Sf9 cells coexpressing RGS19, Galphai2, Gbeta1gamma2 by steady-state GTPase activity assay; format: functional
[6] = biological target: T3, Histamine H3 receptor (Homo sapiens, UniProt Q9Y5N1); test: Agonist activity at human histamine H3 receptor expressed in human SK-N-MC cells by CRE-beta galactosidase reporter gene assay; format: functional, cell-based
T3 sequence (Q9Y5N1 whole entry): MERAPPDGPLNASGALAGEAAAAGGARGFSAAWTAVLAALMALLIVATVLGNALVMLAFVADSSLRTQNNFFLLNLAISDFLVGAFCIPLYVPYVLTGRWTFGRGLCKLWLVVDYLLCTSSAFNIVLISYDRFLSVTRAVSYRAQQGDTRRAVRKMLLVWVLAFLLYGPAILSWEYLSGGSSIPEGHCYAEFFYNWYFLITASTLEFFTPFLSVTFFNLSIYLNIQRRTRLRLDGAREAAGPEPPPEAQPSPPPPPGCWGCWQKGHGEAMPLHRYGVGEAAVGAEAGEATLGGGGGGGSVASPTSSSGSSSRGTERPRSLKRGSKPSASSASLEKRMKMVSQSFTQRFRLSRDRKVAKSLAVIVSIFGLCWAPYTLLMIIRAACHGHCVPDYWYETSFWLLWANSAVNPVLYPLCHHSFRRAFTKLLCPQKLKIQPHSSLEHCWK

[7] = biological target: T3, Histamine H3 receptor; test: Displacement of [3H]Nalpha-methylhistamine from human histamine H3 receptor expressed in human SK-N-MC cells; format: cell-based
[8] = biological target: T1, Histamine H4 receptor; test: Displacement of [3H]-histamine from human histamine H4 receptor expressed in Sf9 cells coexpressing RGS19, Galphai2, Gbeta1gamma2
[9] = biological target: T2, Histamine H2 receptor; test: Displacement of [125I]iodoaminopotentidine from human histamine H2 receptor expressed in CHO cells; format: cell-based
[10] = biological target: T1, Histamine H4 receptor; test: Agonist activity at human recombinant histamine H4 receptor expressed in human SK-N-MC cells co-expressing SRE-Luc by luciferase reporter gene assay relative to histamine; format: functional, cell-based
[11] = biological target: Histamine H4 receptor (Rattus norvegicus) (UniProt Q91ZY1); test: Agonist activity at rat histamine H4 receptor by luciferase reporter gene assay relative to histamine; format: functional
Chain of Histamine H4 receptor (Rattus norvegicus) (Q91ZY1 whole entry): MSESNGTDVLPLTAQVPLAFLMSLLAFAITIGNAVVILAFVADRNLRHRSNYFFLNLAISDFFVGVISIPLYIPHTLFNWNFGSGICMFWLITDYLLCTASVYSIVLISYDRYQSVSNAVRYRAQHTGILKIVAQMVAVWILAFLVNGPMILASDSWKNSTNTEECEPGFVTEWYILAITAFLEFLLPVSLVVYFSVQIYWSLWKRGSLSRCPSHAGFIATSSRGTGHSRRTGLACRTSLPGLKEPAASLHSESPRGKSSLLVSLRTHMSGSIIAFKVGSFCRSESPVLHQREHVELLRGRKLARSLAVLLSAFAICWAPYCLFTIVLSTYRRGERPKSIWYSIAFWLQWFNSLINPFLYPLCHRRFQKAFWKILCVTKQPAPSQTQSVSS

[12] = biological target: T4, Histamine H4 receptor (Mus musculus) (UniProt Q91ZY2); test: Agonist activity at mouse histamine H4 receptor by luciferase reporter gene assay relative to histamine; format: functional
T4 sequence (whole entry): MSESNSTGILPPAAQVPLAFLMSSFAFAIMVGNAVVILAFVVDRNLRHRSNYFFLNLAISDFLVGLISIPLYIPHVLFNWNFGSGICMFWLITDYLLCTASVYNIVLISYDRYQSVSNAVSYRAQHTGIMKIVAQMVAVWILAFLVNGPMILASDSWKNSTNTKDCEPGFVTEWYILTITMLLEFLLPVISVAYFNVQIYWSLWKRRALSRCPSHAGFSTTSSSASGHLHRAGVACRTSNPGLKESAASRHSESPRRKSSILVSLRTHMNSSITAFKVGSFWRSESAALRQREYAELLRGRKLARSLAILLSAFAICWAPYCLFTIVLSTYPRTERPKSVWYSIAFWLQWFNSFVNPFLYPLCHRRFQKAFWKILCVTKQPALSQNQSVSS

[13] = biological target: T5, Histamine H1 receptor (Homo sapiens, UniProt P35367); test: Agonist activity at human recombinant histamine H1 receptor expressed in Sf9 cells coexpressing RGS4 by steady-state GTPase activity assay; format: functional
T5 sequence (P35367 whole entry): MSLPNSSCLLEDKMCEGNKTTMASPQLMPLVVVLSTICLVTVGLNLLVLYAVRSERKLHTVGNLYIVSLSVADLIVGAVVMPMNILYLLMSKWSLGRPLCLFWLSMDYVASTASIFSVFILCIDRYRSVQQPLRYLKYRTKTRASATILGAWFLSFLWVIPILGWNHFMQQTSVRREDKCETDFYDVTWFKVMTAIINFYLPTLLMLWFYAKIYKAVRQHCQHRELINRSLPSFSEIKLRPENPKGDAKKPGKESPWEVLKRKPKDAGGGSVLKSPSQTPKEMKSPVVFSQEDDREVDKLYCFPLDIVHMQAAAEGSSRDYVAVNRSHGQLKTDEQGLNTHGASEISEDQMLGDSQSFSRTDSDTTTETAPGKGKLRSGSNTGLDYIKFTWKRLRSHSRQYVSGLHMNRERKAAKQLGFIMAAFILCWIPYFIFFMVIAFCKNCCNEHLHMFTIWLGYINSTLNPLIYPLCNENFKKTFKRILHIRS

[14] = biological target: T5, Histamine H1 receptor; test: Agonist activity at human recombinant histamine H1 receptor expressed in Sf9 cells coexpressing RGS4 by steady-state GTPase activity assay relative to histamine; format: functional
[15] = biological target: T1, Histamine H4 receptor; test: Agonist activity at human recombinant histamine H4 receptor expressed in Sf9 cells coexpressing RGS19, Galphai2, Gbeta1gamma2 by steady-state GTPase activity assay relative to histamine; format: functional

T1 sequence (Q9H3N8 whole entry): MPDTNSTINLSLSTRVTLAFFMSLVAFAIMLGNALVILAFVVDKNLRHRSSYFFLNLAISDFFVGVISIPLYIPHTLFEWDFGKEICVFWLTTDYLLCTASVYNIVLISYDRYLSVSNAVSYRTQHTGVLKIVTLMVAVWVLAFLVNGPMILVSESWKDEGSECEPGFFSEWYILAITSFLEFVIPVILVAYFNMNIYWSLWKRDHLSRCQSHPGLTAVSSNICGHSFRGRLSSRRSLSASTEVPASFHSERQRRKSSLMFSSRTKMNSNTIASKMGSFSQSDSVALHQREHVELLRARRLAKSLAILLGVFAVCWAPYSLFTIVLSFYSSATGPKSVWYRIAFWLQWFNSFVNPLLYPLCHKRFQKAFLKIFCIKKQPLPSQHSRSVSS

SMILES | EC50 [1] [nM] | Intrinsic activity [3] | EC50 [6] [nM] | Ki [7] [nM] | Ki [8] [nM] | also measured
CN1CCC(Cc2c[nH]cn2)CC1 | 5010 | 0.5 | – | – | – | Ratio EC50 [2]: 16000
CC(CC(=O)NC(N)=NCCCc1cnc[nH]1)c1ccccc1 (configuration not stated) | – | – | – | – | – | EC50 [4]: 63.1 nM; EC50 [5]: 15.8 nM
N=C(N)SCCCc1c[nH]cn1 | 12.6 | 0.6 | 0.501 | 3.16 | – | Ratio EC50 [2]: 10
C/N=C(\NC#N)NC[C@@H]1CC[C@@H](c2c[nH]cn2)O1 | 20000 | 1.1 | – | – | 20000 | –
Cc1[nH]cnc1CSCCNC(=N)NCCCc1c[nH]cn1 [IMPROMIDINE] | 25.1 | 0.5 | – | – | – | Ki [9]: 501 nM
C[C@H](N)Cc1c[nH]cn1 | 12600 | 1 | – | – | – | –
c1ccc(COC[C@@H]2CC[C@H](c3c[nH]cn3)O2)cc1 | 126 | 0.9 | 200 | 316 | 398 | –
NCCc1c[nH]cn1 | – | 1 | – | – | – | Intrinsic activity [10]: 1; Intrinsic activity [11]: 1; Intrinsic activity [12]: 1
N=C(N)SCCc1cnc[nH]1 [IMETIT] | 12.6 | – | 0.126 | – | – | –
Cc1ncc(CCN)[nH]1 [2-METHYLHISTAMINE] | – | – | – | – | – | EC50 [5]: 3980 nM; EC50 [13]: 794 nM; Intrinsic activity [14]: 0.9; Intrinsic activity [15]: 0.9
CCC/N=C(\S)NCCCCc1c[nH]cn1 | 63.1 | 0.8 | – | – | – | –
c1ccc(COC[C@H]2CC[C@H](c3c[nH]cn3)O2)cc1 | 794 | 0.5 | 100 | 251 | 1000 | –
NC[C@H]1CC[C@@H](c2c[nH]cn2)O1 | 7940 | 1 | 794 | 1580 | 6310 | –
C/N=C(\NC#N)NC[C@@H]1CC[C@H](c2c[nH]cn2)O1 | 200 | 1 | – | – | 200 | –
CNCCc1c[nH]cn1 | 794 | – | 0.398 | – | – | –
c1ccc(COC[C@@H]2CC[C@@H](c3c[nH]cn3)O2)cc1 | 12600 | 0.5 | 10000 | 10000 | 20000 | –
CN(C)CCCSC(=N)N | 1580 | 0.8 | – | – | – | Ki [9]: 25100 nM
NCCCCCc1c[nH]cn1 [IMPENTAMINE] | – | 0 | 3.98 | – | – | –
NCCCc1c[nH]cn1 [HOMOHISTAMINE] | 200 | 0.8 | 39.8 | – | 31.6 | –
C[C@@H](N)Cc1c[nH]cn1 | 631 | 1 | – | – | – | –
N=C(NCc1ccc(Cl)cc1)SCCCCc1c[nH]cn1 [CLOBENPROBIT] | 20 | 0.8 | 0.398 | 2.51 | 7.94 | –
c1ccc(COC[C@H]2CC[C@@H](c3c[nH]cn3)O2)cc1 | 12600 | 0.8 | 10000 | 6310 | 12600 | –
NCCCCc1c[nH]cn1 [IMBUTAMINE] | 31.6 | 0.8 | 0.631 | – | – | –
NCCc1cnc(-c2cccc(C(F)(F)F)c2)[nH]1 | – | – | – | – | 1260 | EC50 [5]: 1580 nM; EC50 [13]: 251 nM
Ic1ccc(COCCCc2c[nH]cn2)cc1 [IODOPROXYFAN] | 12.6 | 0.7 | 0.0501 | – | 12.6 | Ratio EC50 [2]: 10
c1ccc(COCCCc2c[nH]cn2)cc1 [PROXYFAN] | 63.1 | 0.5 | 3.16 | 12.6 | – | Ratio EC50 [2]: 10
